Results: ChEMBL document CHEMBL1201862, “PubChem BioAssay data set” (2004)
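A five-concentration, 48-hour dose response in 96-well plates underlies each endpoint, interpolated linearly between surrounding concentrations. GI50 = concentration required for 50% inhibition of growth.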 Active and inactive are the calls of the source. Rule as the data show it: active = GI50 up to about 1.1 µM and inactive = higher.

How the values were obtained:
Assay in all cases: NCI-60 cell line screen, 48 h
786-0 = tested on: 786-0
A549 = tested on: A549
CCRF-CEM = tested on: CCRF-CEM
COLO 205 = tested on: COLO 205
HCC 2998 = tested on: HCC 2998
IGROV-1 = tested on: IGROV-1
KM12 = tested on: KM12
MOLT-4 = tested on: MOLT-4
NCI-H522 = tested on: NCI-H522
OVCAR-3 = tested on: OVCAR-3
OVCAR-4 = tested on: OVCAR-4
SK-MEL-28 = tested on: SK-MEL-28
SR = tested on: SR
TK-10 = tested on: TK-10
U-251 = tested on: U-251
UO-31 = tested on: UO-31
EKVX = tested on: EKVX
RXF 393 = tested on: RXF 393

Measured: GI50

O=C(O)CSc1nnc(COc2ccccc2)n1-c1ccccc1
inactive: 786-0 > 100 µM | A549 > 100 µM | CCRF-CEM > 100 µM | COLO 205 > 100 µM | HCC 2998 > 100 µM | IGROV-1 > 100 µM | KM12 > 100 µM | MOLT-4 > 100 µM | NCI-H522 > 100 µM | OVCAR-3 > 100 µM | OVCAR-4 > 100 µM | SK-MEL-28 > 100 µM | SR > 100 µM | TK-10 > 100 µM | U-251 > 100 µM | UO-31 > 100 µM

Cc1ccc(NC(=O)CC2SC(=N)NC2=O)cc1C (configuration not stated)
inactive: 786-0 > 100 µM | A549 > 100 µM | COLO 205 > 100 µM | HCC 2998 75 µM | IGROV-1 > 100 µM | KM12 > 100 µM | MOLT-4 > 100 µM | NCI-H522 > 100 µM | OVCAR-3 > 100 µM | OVCAR-4 > 100 µM | SK-MEL-28 > 100 µM | SR > 100 µM | TK-10 > 100 µM | U-251 64.3 µM | UO-31 > 100 µM

CN(C)/C=N/c1nc2ncn(CCOC(=O)c3ccccc3)c2c(=O)[nH]1
inactive: 786-0 > 100 µM | A549 > 100 µM | CCRF-CEM > 100 µM | COLO 205 > 100 µM | EKVX > 100 µM | IGROV-1 > 100 µM | KM12 > 100 µM | NCI-H522 > 100 µM | OVCAR-3 > 100 µM | OVCAR-4 > 100 µM | RXF 393 > 100 µM | SK-MEL-28 > 100 µM | SR > 100 µM | TK-10 > 100 µM | U-251 > 100 µM | UO-31 > 100 µM

Brc1ccc(N2C[N+](c3ccc(Br)cc3)=NC(c3ccccc3)=N2)cc1
inactive: 786-0 16 µM | A549 18.6 µM | COLO 205 19.1 µM | EKVX 16.7 µM | HCC 2998 15.4 µM | IGROV-1 14.7 µM | KM12 14.9 µM | MOLT-4 14.2 µM | NCI-H522 19.6 µM | OVCAR-4 19.5 µM | RXF 393 22.6 µM | SK-MEL-28 23 µM | TK-10 19.5 µM | U-251 19.1 µM | UO-31 14.5 µM

CN1Cc2c(nc(-c3ccc(Br)cc3)c[n+]2[O-])N(C)C1
inactive: 786-0 > 100 µM | A549 > 100 µM | CCRF-CEM > 100 µM | COLO 205 > 100 µM | EKVX > 100 µM | IGROV-1 > 100 µM | KM12 > 100 µM | MOLT-4 > 100 µM | NCI-H522 > 100 µM | OVCAR-3 > 100 µM | OVCAR-4 > 100 µM | RXF 393 > 100 µM | SK-MEL-28 > 100 µM | SR > 100 µM | U-251 > 100 µM | UO-31 > 100 µM

CC1C=C(CCCCCCCCCCCC[C@@H](O)[C@@H]2CC[C@@H]([C@@H]3CC[C@@H](C(O)CCCCCCCCCCCCC4=C[C@H](C)OC4=O)O3)O2)C(=O)O1 (some centres not stated)
inactive: 786-0 > 100 µM | A549 4.5 µM | CCRF-CEM 5.36 µM | COLO 205 41.2 µM | EKVX 1.44 µM | HCC 2998 > 100 µM | IGROV-1 > 71.1 µM | KM12 > 68.1 µM | MOLT-4 11.6 µM | NCI-H522 1.28 µM | OVCAR-3 23 µM | RXF 393 > 96.8 µM | SK-MEL-28 > 100 µM | TK-10 > 100 µM | U-251 23.7 µM | UO-31 6.67 µM

CC1CC[C@@]23CCC4(C)[C@@](C=CC5[C@@]6(C)CCC(=O)C(C)(C)C6CC[C@]54C)(OC2=O)[C@@H]3[C@H]1C (some centres not stated)
inactive: 786-0 24.3 µM | A549 6.93 µM | CCRF-CEM 5.35 µM | COLO 205 13.7 µM | EKVX 32.1 µM | IGROV-1 21.1 µM | KM12 12 µM | MOLT-4 7.29 µM | NCI-H522 11 µM | OVCAR-3 11.9 µM | OVCAR-4 29.4 µM | RXF 393 14.1 µM | SK-MEL-28 20.4 µM | SR 6.08 µM | TK-10 22.4 µM | U-251 17.3 µM | UO-31 8.02 µM

Cn1c(=O)nc2n(-c3cccc(F)c3)c3ccccc3nc-2c1=O
inactive: 786-0 42 µM | A549 19 µM | CCRF-CEM 19.4 µM | COLO 205 6.11 µM | EKVX 13.8 µM | HCC 2998 13.4 µM | IGROV-1 26.8 µM | KM12 23.1 µM | MOLT-4 23.1 µM | NCI-H522 16.6 µM | OVCAR-3 3.57 µM | OVCAR-4 14.7 µM | RXF 393 67.9 µM | TK-10 31.6 µM | U-251 19.3 µM | UO-31 52 µM

COCC(O)Cn1ccnc1[N+](=O)[O-] (configuration not stated) [MISONIDAZOLE]
inactive: 786-0 > 100 µM | A549 > 100 µM | CCRF-CEM > 100 µM | COLO 205 > 100 µM | EKVX > 100 µM | HCC 2998 > 100 µM | KM12 > 100 µM | MOLT-4 > 100 µM | NCI-H522 > 100 µM | OVCAR-3 > 100 µM | SK-MEL-28 > 100 µM | SR > 100 µM | TK-10 > 100 µM | U-251 > 100 µM | UO-31 > 100 µM
